Reference: a melting point compilation (Tetko et al.; mined from patent text by program, amines drawn as free bases though some values may be those of a salt)

melting point	SMILES
104 to 105 °C	C#CCn1c(-c2cccnc2)c(C)c2ccccc21
218 to 220 °C	Cc1[nH]c(=O)c(C#N)cc1-c1ccccc1OCCCC(=O)O
113 to 115 °C	FC(F)(F)c1ccc(C=Cc2nc(CNc3ccc(CCCCn4ccnn4)cc3)co2)cc1
> 275 °C	N=C(N)c1ccc(N2CCN(c3ccc(CCC(=O)O)cc3)S2(=O)=O)cc1
82 to 84 °C	O=C(CCC#Cc1ccccn1)Nc1ccccc1F
128 to 130 °C	C[C@@H]1Cc2cc3c(cc2C(c2ccc(N)cc2)=NN1c1ccccn1)OCO3
178 to 180 °C	COc1cc(C(=O)NCCc2ccc(N)cc2)cc(OC)c1OC(C)=O
139 °C	COc1cc(C)nc(-c2cnnn2NS(=O)(=O)c2ccccc2Cl)n1
183 to 184 °C	O=C(Nc1ccc(C(F)(F)F)cc1)C1=NN(c2cccc(Cl)c2)C(c2ccccc2)CC1 (centres undefined)
208 °C	CCOC(=O)C1=C(C)NC(N)=C(C(=O)OCC)C1c1ccccc1C#N (centres undefined)
234 to 236 °C	Fc1ccc(-c2nc[nH]c2-c2ccc(F)cc2)cc1
252 to 254 °C	COc1cc(OC)c2c(=O)[nH]c(-c3cc(C)c(OCC(C)(C)O)c(C)c3)cc2c1
132 to 134 °C	CCc1cc(OCc2ccc(-c3ccccc3C(=O)OC)cc2)c2ccccc2n1
97 to 98 °C	CN1CCCC(OC(=O)Nc2ccc(F)cc2)C1 (centres undefined)
64 to 66 °C	CCNC(=O)CCCC=CCC1C(O)CC(O)C1C=CC(O)CCc1ccccc1 (centres undefined)
152 °C	COc1ccccc1Sc1c(NS(=O)(=O)c2ccc(C(C)(C)C)cc2)nc(CO)nc1OC
131 to 133 °C	Nc1ccc2c(c1)c(=O)[nH]c(=O)n2CCCCN1CCC(OC(c2ccccc2)c2ccccc2)CC1
85 to 86 °C	COC(=O)[C@@H](Cc1ccccc1)NC(=O)OCc1cc2cc(-c3ccccc3)ccc2o1
90 to 92 °C	COc1cc(/C=C/C(=O)Nc2ccccc2C(=O)O)ccc1OC1CCCCC1
75 to 77 °C	CCCCCCCCOc1cc(-c2cccc(C(F)(F)F)c2)c(OCC(=O)O)c(-c2cccc(C(F)(F)F)c2)c1
206 °C	CNc1cc(Sc2ccc(O)cc2)c(N)cc1[N+](=O)[O-]
174 to 177 °C	CC(C)CNC(=O)c1cccc(-c2ccnc3c(C(=O)c4cccs4)cnn23)c1
128 to 130 °C	COC(=O)NCC1Cc2cc(Cl)c3ccccc3c2O1 (centres undefined)
96 to 98 °C	Cc1nc(Cl)cc(C2(c3ccc(Cl)cc3)CCC2)n1

melting point	SMILES
64 to 65 °C	O=C1NCCN1OCc1ccccc1
90 to 91 °C	CCCCCCCCCCc1ccc(NC(=O)c2cc(Cl)cc(Cl)c2O)cc1
105 °C	CCCCCCCCCCCCCCCCCCSCCCCCC(N)=O
> 268 °C	O=C1CCCN1c1cnc2cnc(-c3ccc(O)cc3)nc2c1
175 to 177 °C	Oc1ccc(-c2nc3cc(O)cc(C(Br)CBr)c3o2)cc1 (centres undefined)
97 to 98 °C	COC(=O)CCCc1cc2cc(Cl)ccc2n1S(=O)(=O)c1ccc(OC)cc1
222 °C	Cc1c(C=CC(=O)O)cccc1[N+](=O)[O-]
70 to 71 °C	COc1c(OC)c(OC(C)=O)c2cc(OCCc3ccccc3)ccc2c1OC(C)=O
134 to 136 °C	Cc1cc(C)c2nc(C)n(Cc3ccc(NCC4CCN(C(C)C)CC4)cc3)c2n1
168 to 174 °C	O=C(N[C@H](Cc1ccccc1)C(=O)O)OCc1cc2cc(-c3ccccc3)ccc2[nH]1
146 to 149 °C	COc1ccccc1C1(c2ccccc2OC)CC1
131 to 132 °C	CCOC(=O)C1CCc2[nH]c3ccc(OC(F)(F)F)cc3c2C1 (centres undefined)
179 to 180 °C	CCCCc1nc2cccc(C(=O)OCc3ccncc3)c2n1Cc1ccc(-c2ccccc2-c2nnn[nH]2)cc1
> 260 °C	CCOC(=O)c1c(SC)nc(C2CC2)n1Cc1ccc(-c2ccccc2S(=O)(=O)NC#N)cc1
72 to 74 °C	CS(=O)Cc1ccc(Cl)nc1 (centres undefined)
49 to 52 °C	CCOC(=O)c1c(C(F)(F)F)nc(C(F)F)c(C(=O)OC)c1C1CC1
145 °C	CCN1C(=O)N(c2cc(Cl)cc(Cl)c2)C(=O)[C@]12CN(S(=O)(=O)c1cccc(C(=O)O)c1)C[C@H]2c1ccc(C#N)cc1 (relative stereo)
126 to 129 °C	C1=Nc2ccccc2OC1
112 °C	CC(=O)NCCc1coc2ccc3c(c12)OCCO3
132 °C	C=CS(=O)(=O)Nc1c(C)cc([N+](=O)[O-])cc1C
234 to 235 °C	COC(=O)C(NS(=O)(=O)c1ccc(-c2ccc(NC(=O)c3cc4cc(OC)ccc4o3)cc2)cc1)C(C)C (centres undefined)
> 250 °C	NSc1nc(N)nc2nc[nH]c12
138 to 140 °C	CC(=O)N(CC(=O)N1c2ccccc2N(Cc2ccccc2)C(=O)[C@H]2CCC[C@H]21)C(=O)CCc1ccccc1 (relative stereo)
119 to 120 °C	COCCOc1ccc(CCCC(=O)O)c(Oc2ncc(C(F)(F)F)cc2Cl)c1

melting point	SMILES
230 °C	O=C(O)c1ccccc1S(=O)(=O)Cc1c(O[C@H](Cn2ccnc2)c2ccccc2)ccc2c1CCCC2=O
176 to 177 °C	COc1ccc2sc(C(=O)Nc3ccc(S(=O)(=O)OC)cc3)c(OC(C)C)c2c1
179 to 182 °C	NS(=O)(=O)c1c(C(=O)O)cnn1-c1cccc(Cl)n1
138 to 140 °C	CC(C)(C)OCC(=O)c1cnc(NC(=O)C(C)(C)C)cn1
84 to 87 °C	C=CS(=O)(=O)N1CCC[C@H]1C(=O)OC(C)(C)C
113 °C	COc1ccc(CN(C)CCSc2ccc(NC(=O)c3cccc4c(=O)c5ccccc5[nH]c34)cc2)cc1OC
168 to 169 °C	CNC(=O)c1ccc(-c2cnc3oc(=O)n(Cc4cccc(OC)c4)c3n2)cc1
151 to 152 °C	CCCCC[C@@H](CNC(=O)Nc1c(N(C)C)ncnc1N(C)C)c1cccc2c1OCO2
283 to 291 °C	CCCn1cc2c(C3C(=O)Nc4ccc(Br)cc43)nc(NCCc3ccccn3)nc2n1 (centres undefined)
118 to 120 °C	COC(=O)CCC/C=C/c1nn(-c2ccc(NC(C)=O)cc2)c2c1CCC2
135 °C	COc1nc(NCCNC(C)C)nc(OC)c1[N+](=O)[O-]
163 to 165 °C	O=C(O)Cn1cc(Cc2cccc([N+](=O)[O-])c2)c2ccccc21
220 to 225 °C	COc1ccccc1N1CCN([C@H]2CC[C@H](c3ccc(-c4ccccc4)cc3)CC2)CC1
128 to 131 °C	Cc1nc(NCCSCc2nc[nH]c2C)[nH]c(=O)c1Cc1cccnc1
106 to 107 °C	O=C(CCC(=O)Oc1ccc(C(=O)OCc2ccccc2)cc1)Oc1ccc(C(=O)OCc2ccccc2)cc1
195 to 197 °C	O=C(O)C1SCSCC12OCCO2 (centres undefined)
168 to 170 °C	Cc1[nH]c2ccccc2c1CN1CCC(c2c(Cl)cccc2Cl)CC1
155 to 157 °C	COc1cc(OC)nc(Oc2cccc3c2C(=O)OC3Oc2ccccc2)n1 (centres undefined)
146 to 147 °C	Cc1c(-c2ccccc2)oc2c(S(=O)(=O)N(C)CCO)cccc2c1=O
307 to 309 °C	O=c1[nH]cnc2ccc(C=Cc3ccncc3)cc12
181 to 183 °C	C=CCNc1nc(N)nc2c1ncn2C1C=CC(CO)C1 (centres undefined)
145 to 150 °C	COc1cc(C)ccc1S(=O)(=O)NC(=O)C(c1ccc2c(c1)OCO2)c1cn(C)c2ccc(Br)cc12 (centres undefined)
60 °C	COc1ccc2nccc(CCC[C@@H]3CCN(CCCc4cccs4)C[C@@H]3C(=O)O)c2c1
180 to 183 °C	Cc1cc(Cl)c(C(N)=O)cc1[N+](=O)[O-]

melting point	SMILES
214 to 215 °C	CC(C)(C)OC(=O)NC1CCC(=O)NC1=O (centres undefined)
91 to 92 °C	COC(=O)C(CCO)NS(=O)(=O)c1ccc(Cl)cc1 (racemic)
159 °C	COC(=C1C2CC3CC(C2)CC1C3)c1cc(OC)cc(OC(=O)C(C)(C)C)c1
86 to 89 °C	Cc1c(-c2ccccc2)nnc(N(C)C)c1C
219 °C	COc1cc(N)ccc1S(=O)(=O)n1c(=O)n(C2CCCCCC2)c2cc(Cl)ccc21
79 to 80 °C	CCCN(CCC)C(=O)C(=NNc1ccccc1)C(C)=O
200 to 201 °C	O=c1ccn(-c2ccccc2N2CCOCC2)nc1-c1ccnn1-c1ccccc1
163 °C	COc1ccc(C2C(=O)c3ccc(OC)cc3C2=O)cc1 (centres undefined)
93 to 98 °C	CCOC(=O)C(C)c1ccc2cc(O)ccc2c1 (centres undefined)
214 to 215 °C	CC(C)c1nc(-c2ccc(S(C)(=O)=O)cc2)c(-c2ccc(F)cc2)[nH]1
159 to 161 °C	Nc1ncc(Oc2ccc(Cl)cc2)c(N2CCN(C=O)CC2)n1
75 to 76 °C	CC1(C)CC(=O)C1(Cl)CC(Cl)(Cl)Cl (centres undefined)
248 to 249 °C	O=c1ccc(S(=O)(=O)c2cc3ccccc3[nH]2)n[nH]1
113 to 114 °C	COc1ccc(C(=O)CN(Cc2ccccc2)Cc2ccccc2)cc1C(N)=O
79 to 80.5 °C	CCCCCCCCCCCCC(=O)CC#CCCCC(=O)O
155 to 156 °C	COc1ccc(S(=O)(=O)Nc2ccccc2NC(=S)c2ccc(F)cc2)cc1
140 to 142 °C	COC(=O)c1cc2c(Cl)cc(C(=O)OC)c(Cl)c2c(Cl)c1Cl
48 to 51 °C	C1=Cc2ccccc2OC1
120 °C	O=C(O)c1ccc(CNC(=O)C2Cc3ccccc3N2S(=O)(=O)c2ccc(-c3cccc(C(F)(F)F)c3)cc2)cc1 (centres undefined)
> 250 °C	O=C(O)c1cccc(CN2CCC(N3C(=O)Nc4ccccc4C3c3ccccc3)CC2)c1 (centres undefined)
144 to 145 °C	CN(CCF)c1nc2cc(NC(=O)c3c(C(=O)N4CCOCC4)cnn3C)ccn2n1
125 °C	COc1ccc(CN(C)CCc2ccc(NC(=O)c3cccc4c(=O)c5cccc(F)c5[nH]c34)c(C)c2)cc1OC
130 to 132 °C	CCC(OCC(F)F)c1ccc(Cl)c2nc3n(c12)CCCN3c1ccc(OC)nc1C (centres undefined)
110 °C	CC1(C)COc2cc(Br)ccc2C(O)(c2ccccn2)C1 (centres undefined)

SMILES	melting point
COC(=O)C1C(c2ccccc2)C2(C(=O)OC)C(C)=NC1(C)CC2C[Si](C)(C)C (centres undefined)	152 to 155 °C
COC(=O)C1(Cl)CC1C(=O)O (centres undefined)	77.7 to 79.1 °C
Cn1ncc([N+](=O)[O-])c1CBr	71 to 73 °C
